Values belong to the compound of their own block, whether it stands above or below them.
What was measured:
Type in all cases: cell-based, human
[1] = system: Luminal A breast cancer tissue; experiment: Estrogen supplementation effect on in vitro culture of Luminal A breast cancer tissue chunks; conditions: 200 ng/mL, medium with 10% autologous serum
Procedure: (§1) The system is tested mainly for colorectal cancer and Luminal A breast cancer. Thereby a tissue specimen is manually cut in small chunks at a size of 1 mm to 2 mm per side. The pieces are placed in between two collagen scaffolds having a diameter of 8 mm to create an assembly or “sandwich” that it is then placed in a perfusion chamber of the 3D perfusion bioreactor. For each bioreactor, 8-10 mL of culture media are used. The chunks are cultured for 10 to 20 days without medium change.
(§2) Thereby, essentially the same or similar methods and procedures are applied as described hereinbefore in connection with the second example directed to colorectal cancer tissue.
(§3) Luminal A breast cancer is defined as estrogen receptor (ER) positive, progesterone receptor (PR) positive, human epidermal growth factor receptor 2 (HER2) negative and with few proliferating tumor cells (low % of Ki67 positive cells). This type of tumor requires estrogen as growth factor for its survival and expansion. The downsized tissue or tissue chunks are cultured in a medium containing 10% of human autologous serum (AS), therefore receiving all the growth factors comprising the estrogen. […]
The estrogen supplementation effect on in vitro culture is evaluated. […]

[2] = system: Luminal A breast cancer tissue; experiment: In-vitro drug test on Luminal A breast cancer tissue chunks cultured in 3D perfusion bioreactor; conditions: 100 nM, added at day 0 of bioreactor culture
Procedure: as §1, §2, §3

[3] = system: tumor infiltrating lymphocytes (TILs) in Luminal A Breast Cancer (MAM18); experiment: PHA stimulation of tumor infiltrating lymphocytes in in vitro cultured tumor chunks (immunohistochemistry CD45, CD3, CD68); conditions: 1 ng/mL added at day 0, 7 days
Procedure: One important component of the tumor microenvironment is represented by the tumor infiltrating lymphocytes (TILs) that for some tumor types plays an important role by determining the patient prognosis and it is gaining a major attention in the so called cancer immune-therapy. By using PHA (Phytohemagglutinin), TILs are stimulated in their metabolic and proliferative activity, in order to understand if it was possible their stimulation inside the in vitro cultured tumor chunks. The PHA (1 ng/mL) is added at the beginning of the bioreactor culture (day 0).
These raise the possibility to study immunological question or test cancer immunotherapies on in vitro cultured tumor specimens.

Compound: 2-Estradiol
survival and proliferation of the tissue with extra estrogen supplementation (E+) versus without (E-) [1]: do not show any particular difference

effect of anti-estrogen receptor drug treatment on in vitro cultured tumor tissue (FIG. 13) [2]: there is an effect
Compound: C[C@]12CC[C@@H]3c4ccc(O)cc4C[C@@H](CCCCCCCCC[S+]([O-])CCCC(F)(F)C(F)(F)F)[C@H]3[C@@H]1CC[C@@H]2O (stereo partly drawn) [Fulvestrant]

Compound: Phytohemagglutinin [PHA]
presence of TILs after PHA treatment (CD45, CD3, CD68 staining, FIG. 14) [3]: the presence of TILs is still detectable

Reference: US10473646B2, “In vitro culturing or expanding human or animal tissue” (UNIVERSITAETSSPITAL BASEL, priority 2014, dated 2019)
